The test system of one test is C. albicans (SC5314). As to the kind of experiment: Infection of TR146-Nluc epithelial cells with C. albicans in the presence of antifungals; damage read out by Nluc and LDH in supernatant. The test is classed as cell-based. As to conditions: sub-MIC levels, supernatant 24 hours after infection; for protection of TR146-Nluc from C. albicans-induced cell damage, LDH assay: LDH readout, protective effect not reliably detected (FIG. 3D); for protection of TR146-Nluc from C. albicans-induced cell damage, Nluc assay: Nluc readout (FIG. 3D). The method, then: (§1) In order to measure damage from cells seeded in 96-well plates, plates were centrifuged at 250×g for 10 minutes. Where indicated, 100 μl of supernatant was collected and stored at −20° C. for assaying on another day in the same week. For the luciferase assays, 5 μl supernatant was diluted with 95 μl PBS in white flat-opaque-bottomed 96-well plates (ThermoFisher). Then, 100 μl of 10 μM coelenterazine (in PBS) was added and luciferase activity measured immediately using a Tecan infinite M200 luminescence reader, with integration time of 100 ms and OD2 compensation. The OD2 neutral density filter attenuates high level light by a factor of 100.
The LDH cytotoxicity assay was performed according to instructions in the Roche Cytotoxicity Detection Kit with minor modifications. Briefly, 10 μl supernatant was diluted with 90 μl PBS in transparent-flat-bottomed 96-well plates, 100 μl of kit reagent mixture was added to each well, the plates were incubated in the dark for 15-20 minutes at room temperatures, and absorbance was measured with a Tecan absorbance reader at 492 nm (reference at 600 nm).
Infection of epithelial cells with Candida spp. strains Overnight cultures of Candida spp. strains in YPD, 1% peptone were diluted, washed in PBS, and counted using Neubauer counting chambers. The medium of confluent epithelial cells was replaced with a suspension of […] Candida spp. (MOI 1) in the appropriate cell culture medium (without FBS). The cells were incubated at 37° C. and 5% CO2 for 24 hours.
Stock solutions of the antifungal drugs, fluconazole (10 mg/ml) and voriconazole (10 mg/ml) were prepared in DMSO and stored at −20° C. A two-fold dilution series was prepared in DMEM/F12 cell culture medium for fluconazole (8-0.25 μg/ml) and voriconazole ([…]). Diluted drugs were transferred to TR146-Nluc cells seeded 48 hours prior, and infected with C. albicans (SC5314), as described above. Supernatant was collected 24 hours after infection to measure damage by LDH and Nluc.

Another test concerns the target T1, Nluc (Oplophorus gracilirostris, UniProt Q9GV45, A31E/A60N/A81I/F95D/I117V/K70R/L54V/L99Q/M102K/N193R/P142E/Q151K/Q38R/Q45L/V71I/Y165I).
T1 construct: expressed in transfected cells; host or cells: TR146 human oral epithelial cells, lentivirally transduced with pSEW-NanoLuc-IRES-PuroR (Nluc gene amplified from Addgene plasmid #67178), lysed in 1% Triton X-100 in PBS
Put plainly: Effect of pyruvate on Nluc enzyme activity in TR146-Nluc cell lysate. It counts as biochemical. As to conditions: 16-0.5 mM dilution series (FIG. 4C). Here is the method: as §1
TR14-Nluc cells were detached with Accutase and resuspended in 5 ml PBS. Cells were counted and ≈1×10^4 cells/ml were resuspended in lysing buffer (1% Triton X-100 in PBS, pH 7.4).
To examine the effects of pyruvate on activity of LDH, a 2-fold dilution series for sodium pyruvate and lactate (16-0.5 mM) was prepared in lysis buffer, the lysate was incubated for 10 min at 37° C. and centrifuged at 10,000×g. The supernatant was collected to test LDH and luciferase enzyme activity.

T1 sequence (Q9GV45 other isoform, or with tags, fused parts or gaps with the stated changes): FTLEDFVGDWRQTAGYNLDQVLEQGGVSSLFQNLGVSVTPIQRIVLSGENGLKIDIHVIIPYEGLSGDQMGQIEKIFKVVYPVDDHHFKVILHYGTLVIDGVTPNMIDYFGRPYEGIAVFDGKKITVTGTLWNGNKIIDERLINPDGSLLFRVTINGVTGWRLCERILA

For the molecule `OC(Cn1cncn1)(Cn1cncn1)c1ccc(F)cc1F` [fluconazole], in the test with C. albicans (SC5314), the “protection of TR146-Nluc from C. albicans-induced cell damage, LDH assay” value is reported as “not with LDH” and the “protection of TR146-Nluc from C. albicans-induced cell damage, Nluc assay” value is on record as “protective effect”. With `C[C@@H](c1ncncc1F)[C@](O)(Cn1cncn1)c1ccc(F)cc1F` [voriconazole], in the test with C. albicans (SC5314), the “protection of TR146-Nluc from C. albicans-induced cell damage, LDH assay” value is given as “not with LDH” and the “protection of TR146-Nluc from C. albicans-induced cell damage, Nluc assay” value is “protective effect”. As for `CC(=O)C(=O)[O-].[Na+]` [pyruvate, sodium pyruvate], the “effect on Nluc enzyme activity” value on Nluc is “no discernible effect”.

Source of the values: patent publication US20250044279A1, “CYTOTOXICITY ASSAY FOR DETECTING CELLULAR DAMAGE” (priority 2023, published 2025).
